What was measured:
[1] = target: T1, Vitamin D3 receptor (Bos taurus) (UniProt Q28037); assay: Binding affinity to bovine thymus VDR relative to 1-alpha,25-dihydroxyvitamin D3
T1 sequence (whole entry): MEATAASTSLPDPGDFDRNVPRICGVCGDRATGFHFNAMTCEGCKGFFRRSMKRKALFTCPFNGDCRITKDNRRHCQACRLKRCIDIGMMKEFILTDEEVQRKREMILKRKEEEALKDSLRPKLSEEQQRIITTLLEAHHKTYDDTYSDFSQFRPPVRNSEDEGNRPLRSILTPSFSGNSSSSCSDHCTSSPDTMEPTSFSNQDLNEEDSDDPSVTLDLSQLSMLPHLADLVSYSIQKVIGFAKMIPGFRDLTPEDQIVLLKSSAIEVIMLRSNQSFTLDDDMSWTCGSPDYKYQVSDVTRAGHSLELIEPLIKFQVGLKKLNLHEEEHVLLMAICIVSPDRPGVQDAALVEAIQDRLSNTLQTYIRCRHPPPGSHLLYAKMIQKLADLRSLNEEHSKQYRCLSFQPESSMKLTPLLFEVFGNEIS

[2] = target: T1, Vitamin D3 receptor (Bos taurus); assay: Displacement of [3H]1-alpha,25-dihydroxyvitamin D3 from calf thymus VDR by liquid scintillation counting
[3] = target: T2, 1,25-dihydroxyvitamin D(3) 24-hydroxylase, mitochondrial (Homo sapiens, UniProt Q07973); assay: Binding affinity to human CYP24A1 expressed in Escherichia coli assessed as catalytic efficiency after 60 mins relative 1-alpha,25-dihydroxyvitamin D3; settings: 1 h
T2 sequence (Q07973 whole entry): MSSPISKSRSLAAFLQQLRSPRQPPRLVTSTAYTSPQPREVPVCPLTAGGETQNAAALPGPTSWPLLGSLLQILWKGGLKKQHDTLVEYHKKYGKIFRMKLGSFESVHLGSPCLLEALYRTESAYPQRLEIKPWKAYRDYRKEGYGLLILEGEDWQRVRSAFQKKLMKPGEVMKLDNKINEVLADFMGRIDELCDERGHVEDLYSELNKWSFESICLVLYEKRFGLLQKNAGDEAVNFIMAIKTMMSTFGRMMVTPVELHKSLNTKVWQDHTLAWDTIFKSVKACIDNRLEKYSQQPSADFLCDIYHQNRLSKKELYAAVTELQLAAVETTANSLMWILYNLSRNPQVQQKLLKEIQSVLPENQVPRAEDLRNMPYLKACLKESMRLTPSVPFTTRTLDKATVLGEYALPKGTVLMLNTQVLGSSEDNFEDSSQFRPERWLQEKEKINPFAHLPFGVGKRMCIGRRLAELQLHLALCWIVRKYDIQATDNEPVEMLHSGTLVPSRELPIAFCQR

[4] = target: T3, Vitamin D-binding protein (Homo sapiens) (UniProt P02774); assay: Binding affinity to vitamin D-binding protein relative to 1-alpha,25-dihydroxyvitamin D3
T3 sequence (whole entry): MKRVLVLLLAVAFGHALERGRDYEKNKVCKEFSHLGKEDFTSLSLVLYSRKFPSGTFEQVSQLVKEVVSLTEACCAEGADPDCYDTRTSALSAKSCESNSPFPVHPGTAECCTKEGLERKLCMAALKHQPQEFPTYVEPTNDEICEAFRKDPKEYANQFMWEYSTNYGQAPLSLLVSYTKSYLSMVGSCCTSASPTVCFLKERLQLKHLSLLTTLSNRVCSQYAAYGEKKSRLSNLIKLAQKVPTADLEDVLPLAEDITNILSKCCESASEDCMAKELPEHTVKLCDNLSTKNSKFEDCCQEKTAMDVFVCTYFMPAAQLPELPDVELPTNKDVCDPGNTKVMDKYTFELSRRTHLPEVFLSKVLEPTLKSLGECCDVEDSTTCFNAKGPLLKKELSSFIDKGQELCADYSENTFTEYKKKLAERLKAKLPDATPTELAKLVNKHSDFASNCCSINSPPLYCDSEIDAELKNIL

**Q.** `C=C1/C(=C\C=C2/CCC[C@]3(C)[C@@H]([C@H](C)CCCC(C)(C)O)CC[C@@H]23)C[C@H](O)[C@@H](OCCCO)[C@H]1O` was tested. Which Activity [1] did it give?
**A.** 180%

**Q.** And the Activity [2]?
**A.** 180%

**Q.** What about the Activity [3] of the same molecule?
**A.** 2%

**Q.** Which results are given for `C=C1/C(=C\C=C2/CCC[C@]3(C)[C@@H]([C@H](C)CCCC(C)(C)O)CC[C@@H]23)C[C@H](O)[C@H](OCCCO)[C@H]1O`?
**A.** Activity [4]: 2; Activity [1]: 13%

**Q.** With `C=C1/C(=C\C=C2/CCC[C@]3(C)[C@@H]([C@H](C)CCCC(C)(C)O)CC[C@@H]23)C[C@H](O)[C@@H](OCCC)[C@H]1O` as the molecule, how does the Activity [1] read?
**A.** 64%
